Test results published in US20080045582A1, “ENA-78 Gene Polymorphisms and Protein Concentrations as Diagnostic and Prognostic Tools” (priority 2006, published 2008).

How the values were obtained:
[1] = tested on: IL-6; assay: IL-6 production by non-stimulated human umbilical vein endothelial cells, multiplex protein measurement; assay type: cell-based; conditions: increasing concentration of atorvastatin (1-50 μM), 24 hours, FIG. 11A
Method: (§1) Human umbilical vein endothelial cells were obtained (Clonetics Cell Systems; Cambrex Bio Science Walkersville, Inc., Walkersville, Md.). Approximately 5×10^5 viable cells were seeded in endothelial cell growth-supplemented basal medium (EGM-2-endothelial cell medium-2; Cambrex Bio Science Walkersville, Inc.) and maintained at 37° C. under a 5% carbon dioxide atmosphere per manufacturer's protocol. The culture medium was changed 24 hours after seeding and every 48 hours thereafter until confluence. Cells were then treated with trypsin, seeded in a 48-well culture dish, and incubated under the conditions previously described. Cells used in this Example were from the third passage. […]
(§2) The culture-conditioned media protein content of epithelial neutrophil-activating peptide-78 (ENA-78), interleukin-8, (IL-8), monocyte chemotactic protein-1 (MCP-1), interleukin-6 (IL-6), interleukin-10 (IL-10), fibroblast growth factor (FGF), and granulocyte colony-stimulating factor (G-CSF) were measured by means of flow-based immunofluorescence multiplex detection (Fluorokine MAP Human Cytokine Panel; R&D Systems Inc., Minneapolis, Minn.) with the Luminex 100 IS platform (Luminex Corp., Austin, Tex.). […]

[2] = tested on: IL-10; assay: IL-10 production by non-stimulated human umbilical vein endothelial cells, multiplex protein measurement; assay type: cell-based; conditions: atorvastatin 1-50 μM, 24 hours, FIG. 11B
Method: as §1, §2

[3] = tested on: G-CSF; assay: G-CSF production by non-stimulated human umbilical vein endothelial cells, multiplex protein measurement; assay type: cell-based; conditions: atorvastatin 1-50 μM, 24 hours, FIG. 12
Method: as §1, §2

[4] = tested on: HUVECs; assay: HUVEC viability, trypan blue cell staining; assay type: cell-based, human; conditions: 24 hours of treatment, any dose of AT from 1 uM to 50 uM, FIG. 13
Method: Human umbilical vein endothelial cells (HUVECs) (Clonetics Cell Systems; Cambrex Bio Science Walkersville, Inc., Walkersville, USA) were cultured as previously described. Briefly, HUVECs between passes three and four were seeded at a density of 2.5×10^4 cells per cm^2 and cultured to 80% confluence with endothelial cell growth-supplemented medium (EGM-2-endothelial cell medium-2; Cambrex Bio Science Walkersville, Inc.). Once confluent, media was changed to serum free endothelial basal media (EBM-2-endothelial cell medium-2; Cambrex Bio Science Walkersville, Inc.) for 24 hours prior to treatment, in which EBM-2 media supplemented to a 2% FBS concentration was used.
Treatments consisted of atorvastatin calcium (AT; LKT Laboratories Inc., St. Paul, USA) 1-50 μM dissolved in dimethyl sulfoxide (DMSO), IL-1beta, mevalonate, farnesyl pyrophosphate (FPP), and geranylgeranyl pyrophosphate (GGPP) were purchased from Sigma-Aldrich (St. Louis, Mo.), with concentrations of 2 ng/ml, 250 μM, 5 μM, and 5 μM used respectively. All were dissolved in molecular grade water. All final DMSO concentrations were less then 0.1%.
Cell viability was assessed by treating HUVECs with AT 1 μM, 5 μM, 10 μM, 25 μM, and 50 μM using trypan blue cell staining. […]

CC(C)c1c(C(=O)Nc2ccccc2)c(-c2ccccc2)c(-c2ccc(F)cc2)n1CC[C@@H](O)C[C@@H](O)CC(=O)O [atorvastatin]
graded reduction of IL-6 production [1]: 29-83%
treatment effect on IL-10 [2]: no treatment effect
concentrations of G-CSF [3]: did not change
HUVEC viability compared with control [4]: no significant differences
